From US20070155698A1, “Oxazaborolidines as bacteria effectors” (priority 2003, published 2007)
≈ marks a conversion by molar mass, not a printed value. Where two headings read alike, the source gives them in different places.

Columns and labels:
S. mutans ATCC 27351 = test: Minimal inhibitory concentration (MIC), turbidity of overnight growth; type: cell-based; details: for MIC: Streptococcus mutans, read-out: MIC Mean
Description: Sterile microculture dishes containing multiple wells were used to determine the minimal inhibitory concentration MIC) of eight derivatives of oxazborolidines. Each well contained 120 μl of brain heart infusion medium, 15 μl of an overnight suspension of S. mutans ATCC 27351 adjusted to 1 OD540 nm and 15 μl of the tested compound. Each compound was tested at five different concentrations between 0-50 mM. Each experiment was repeated twice. These cultures were incubated at 37° C. in atmosphere enriched in 5% CO2 for 24 hours. Bacteria growth was determined as turbidity of the over night growth and was determined by computerized ELISA reader (Thermomax microplate reader, Molecular Devices, USA) at 650 nm. Control cultures of bacteria with no oxazaborolidines added and media broth with the oxzaborilidines added but with no bacteria were conducted.

[1] = test system: bacterial adhesion to hydroxyapatite (HA) beads; test: Adhesion of radioactively labeled bacteria to hydroxyapatite beads; type: cell-based; details: 60 mM
Description: 40 mg samples of hydroxyapatite (HA) beads (Ceramic hydroxyapatite type I, 80 um, Bio-Rad Laboratories, Hercules, Calif., USA)) (surface area, 0.63 cm^2/mg) were equilibrated with 3 washes of buffered KCl to which 250 μl of labeled radioactive bacteria (prepared as described above), 400 μl of the tested boronic compound and 50 μl of 700 mM sucrose (in KCl buffer solution) were added. The mixture was incubated for 60 min at 37 C with gentle rotation. At the end of the incubation period, the beads were washed 3 times with buffered KCl for removal of unbound components, especially the non-adsorbed labeled bacteria, and then rinsed with 2 ml ethanol into vials containing 10 ml scintillation fluid (Ecoscint A, National Diagnostics, Manville, N.J.). The amount of radioactively labeled bacteria adsorbed onto the HA beads was measured by scintillation counting (BETAmatic scintillation counter (Koutron®, Basel, Switzerland). Results are expressed as percent of bacterial adhesion in comparison to a control group containing no agent.

[2] = test system: AI-2 reporter strain Vibrio harveyi BB170; test: Inhibition of AI-2-induced bioluminescence (quorum sensing); type: cell-based; details: added together with exogenous AI-2
Description: Bright overnight culture was diluted 1:5000 and the bioluminescence was traced along growth of the diluted bacterial culture at the presence of AI-2 which was added at start of the bacterial growth in the induced concentration. BNO-2 in tested concentrations was added at start of the bacterial growth. The residual bioluminescence is expressed as part of maximal, AI-2-inducted and non-inhibited bioluminescence. For the calculation was used bioluminescence level at 2.5 hr after start of the growth.
(§1) Luminescence was monitored by Lumac/3M Biocounter M2010, Netherlands. Culture density was measured as CFU on selective solid LM (L-marine) medium per ml of culture. Relative luminescence (“bioluminescence” in figures) was calculated as quotient of luminescence and culture density and expressed in relative light units (RLU, count/10^6 CFU).
(§2) Fold induction was calculated as relation between induced by BNO-1 and not induced relative luminescence. A measure of inhibition was defined as relation of induced by AI-2 relative luminescence in the presence and in the absence of BNO-2.

[3] = test system: AI-2 reporter strain Vibrio harveyi BB170; test: Induction of bioluminescence in the AI-2 reporter strain (quorum sensing); type: cell-based
Description: Bright overnight culture was diluted 1:5000 and the bioluminescence was traced along growth of the diluted bacterial culture. BNO-1 in tested concentrations was added at start of the bacterial growth. For calculation of fold induction was used the bioluminescence levels at 3 hr after start of the growth.
as §1, §2

[4] = Effect of pH on the oxazaborolidine derivatives (11B NMR); type: physicochemical; details: pH=10.8
Excerpt: At pH=10.8, the free n-butylboronic acid has a chemical shift of 19.974 ppm, while BNO3, the B-butyl containing derivative gives two peaks, one at 24.868 ppm (90%) which is the intermediate and a peak at 6.8 ppm (10%) that belongs to the mentioned above complex. At further basic conditions, a peak at 5.2 ppm exist which indicate a complete conversion to an ate-complex moiety.
On the other hand, the B-phenyl containing derivatives are converted to the ate-complex once they are fully dissolved in H2O, the ate-complex appears at 5.461 ppm in the ^11B NMR.

[5] = ATCC27351, S. mutans, 24 hours, 37° C.

| MIC (S. mutans ATCC 27351; [5]) [µM] | Compound | antibacterial efficacy against S. mutans (MIC based, in words) (S. mutans ATCC 27351) | MIC Range (S. mutans ATCC 27351; S. mutans, 24 hours, 37° C.) | further results |
| --- | --- | --- | --- | --- |
| – | [(2-)-N,O,O′[2,2′-Iminobis[ethanolato]]]-2-phenylboron [BNO8] | weakest activity | 4.5-9. mM | MIC Mean (S. mutans ATCC 27351; S. mutans, 24 hours, 37° C.): 6750 µM |
| 2830 (≈ 614 µg/mL) | CCCCB1NC(C)C(c2ccccc2)O1 (stereo not drawn) [BNO6, 2-butyl-4-methyl-5-phenyl-1,3,2-oxazaborolidine] | – | 1.90 to 3.75 mM | – |
| – | CC1C(c2ccccc2)OB(c2ccccc2)N1C (stereo not drawn) [BNO1, 3,4-dimethyl-2,5-diphenyl-1,3,2-oxazaborolidine] | most active | 0.77 to 2.33 mM | induction of bioluminescence of Vibrio harveyi BB170 ([3]; dose dependent, sensor 1− sensor 2+): induced; induction of bioluminescence in mutants with sensor 2− ([3]; sensor 2− mutants): do not react; MIC (S. mutans ATCC 27351; ATCC27351, 24 h): 1550 µM (≈ 389 µg/mL) |
| – | [(2-)-N,O,O′[2,2′-Iminobis[ethanolato]]]-2-n-butylboron [BNO7] | weakest activity | 4.5 to 9.0 mM | MIC Mean (S. mutans ATCC 27351; S. mutans, 24 hours, 37° C.): 6750 µM |
| 530 (≈ 123 µg/mL) | CCCCB1OC(c2ccccc2)C(C)N1C (stereo not drawn) [BNO5, 2-butyl-3,4-dimethyl-5-phenyl-1,3,2-oxazaborolidine] | most active | 0.26 to 0.80 mM | – |
| 1330 (≈ 315 µg/mL) | CC1NB(c2ccccc2)OC1c1ccccc1 (stereo not drawn) [BNO4, 4-methyl-2,5-diphenyl-1,3,2-oxazaborolidine] | – | 0.90 to 1.75 mM | – |

| Compound | MIC (S. mutans ATCC 27351; [5]) [µM] | antibacterial efficacy against S. mutans (MIC based, in words) (S. mutans ATCC 27351) | MIC Range (S. mutans ATCC 27351; S. mutans, 24 hours, 37° C.) | further results |
| --- | --- | --- | --- | --- |
| CC1(C)COB(c2ccccc2)N1 [BNO2, 4,4-dimethyl-2-phenyl-1,3,2-oxazaborolidine] | 6000 (≈ 1050 µg/mL) | – | 2 to 10 mM | promotion of bacterial adhesion [1]: 37%; inhibition of the ability of exogenous AI-2 to induce bioluminescence [2]: strongly inhibited |
| CCCCB1NC(C)(C)CO1 [BNO3, 2-butyl-4,4-dimethyl-1,3,2-oxazaborolidine] | 3380 (≈ 524 µg/mL) | – | 2.25 to 4.5 mM | reduction of bacterial capability to adhere to hydroxyapatite surface [1]: 63%; share of ate-complex (11B NMR peak at 6.8 ppm) [4]: 10%; share of intermediate (11B NMR peak at 24.868 ppm) [4]: 90% |
